According to patent US20240415804A1, “METHOD OF TREATING PANCREATIC CANCER” (University of South Florida, priority 2022, published 2024):

Tests used:
Panc02 cells = assay: MTT cell viability assay, Panc02; type: cell-based, mouse; conditions: API 40 μM, 24 h, vs DMSO vehicle
Protocol: (§1) The methyl thiazol tetrazolium (MTT) assay was performed as described previously^58. Briefly, MiaPaCa-2, Panc02 and UN-KC-6141 cells were seeded in 96-well plates at a density of 3000 cells/well and allowed to attach overnight. PC cells were then treated with API (40 μM) or DMSO (1%) as vehicle control for 24 h at 37° C. in 5% CO2 incubator. After 24 h, media was replaced with 20 μL of MTT (1 mg/mL) (Sigma-Aldrich) and incubated for 3 h at 37° C. in 5% CO2. MTT was replaced with DMSO, and absorbance was read at 570 nm.
(§2) MiaPaCa-2, Panc02 and UN-KC-6141 cells (2×10^5) were grown in 2 mL of growth medium in a 6-well tissue culture plate for 18-24 h until 60-80% confluency. The following solutions were prepared: Solution A) For each transfection, diluted 1 μL of miRNA-155 inhibitors (1 μM) (Table 2) or scrambled negative control miRNA (1 μM) (Qiagen, Germantown, MD, USA) into 50 μL Opti-MEM Transfection Medium (Invitrogen, Waltham, MA, USA). Solution B) For each transfection, diluted 3 μL of Hi-Perfect Transfection Reagent into 50 μL Opti-MEM Transfection Medium. Solution A was added directly to Solution B, mixed gently and the mixture incubated for 10-15 min at room temperature. […]

UN-KC-6141 cells = assay: MTT cell viability assay, UN-KC-6141; type: cell-based, mouse; conditions: API 40 μM, 24 h, vs DMSO vehicle
Protocol: as §1, §2

Bcl-2 = assay: Western blot of Bcl-2 protein in UN-KC-6141 cells; type: cell-based, mouse; conditions: API 40 μM
Protocol: Single-cell suspensions of BM, digested pancreatic tumors cells and UN-KC-6141 cells treated with API (40 μM) were lysed with radioimmunoprecipitation buffer (Sigma-Aldrich), quantified with a BCA Protein Assay kit (Thermo Fisher Scientific, Waltham, MA, USA), resolved by SDS-PAGE (Thermo Fisher Scientific) and transferred onto a nitrocellulose membrane as previously described. Membranes were probed with either anti-SHIP-1 (Santa Cruz Biotechnology, Dallas, TX, USA), anti-iNOS (Cell Signaling Technology) or anti-Bcl-2 (Cell Signaling Technology, Danvers, MA, USA), all at a dilution of 1:1000. All blots were re-probed with a housekeeping protein, HRP-conjugated anti-β-actin (Sigma-Aldrich), at a dilution of 1:20,000. Membranes were then probed with the respective secondary anti-mouse or rabbit IgG HRP-conjugated antibodies (1:1000) of SHIP-1 and iNOS. Detection of SHIP-1, iNOS and β-actin proteins was performed using Super Signal West Pico or Femto Chemiluminescent Substrates (Thermo Fisher Scientific) and then imaged on a Bio-Rad Chemi Doc XRS Imaging System. Normalized densitometric ratios (divided by β-actin) were determined by quantifying WB results using Image J.

UN-KC-6141 tumors = assay: Tumor growth in KC-HPC mice; type: in vivo, mouse; conditions: API 25 mg/kg IP three times per week
Protocol: To build on these findings, the inventors then used a novel pancreatic cancer cell line, UN-KC-6141, that resembles human PC due to its expression of a mutated Kras and generated mice harboring these tumor cells, called KC-HPC mice. Such mice were treated with API at a dose of 25 mg/kg (IP) three times per week for 17 days. The inventors examined if API also targets miR-155 and regulates SHIP-1 in the tumors from KC-HPC mouse model. […] All female C57BL/6 mice (6-8 weeks of age) described in this study were purchased from Envigo (Indianapolis, IN, USA) and were acclimatize for one week in a pathogen-free animal facility (University of South Florida (USF) vivarium) before injections with PC cells. To generate heterotopic pancreatic cancer (HPC) models, mice were subcutaneously injected with 1.5×10^5 murine Panc02 (HPC mice) or 5×10^6 murine UN-KC-6141 cells (KC-HPC mice), in sterile 1× phosphate buffer saline (PBS), in the lower ventral abdomen, while control (CTRL) mice received sterile 1×PBS. Once tumors where palpable, API (25 mg/kg, 100 μL volume) treatments (HPC-API and KC-HPC-API), via intraperitoneal (IP) injections, were started while CTRL, HPC and KC-HPC mice received sterile PBS (vehicle) three times per week until the end of the study^12, 55. The HPC models were euthanized 21-28 days post-injection, while the KC-HPC models were euthanized 16-17 days post-injection.

## O=c1cc(-c2ccc(O)cc2)oc2cc(O)cc(O)c12 [API, 40,5,7-Trihydroxyflavone, 5,7-Dihydroxy-2-(4-hydroxyphenyl)-4-benzopyrone]
Panc02 cells
  cell viability (MTT): significantly inhibited
UN-KC-6141 cells
  cell viability (MTT): significantly inhibited
Bcl-2
  Bcl-2 protein expression (WB): significant decrease
UN-KC-6141 tumors
  tumor burden (tumor volume, tumor area): significantly reducing
